The source of these data is ChEMBL document CHEMBL1135978, “Three-dimensional quantitative structure-activity relationship of 1,4-dihydropyridines as antitubercular agents” (2002).

This test concerns Mycobacterium tuberculosis. Put plainly: Antitubercular activity against Mycobacterium tuberculosis H37Rv ATCC 27294. The class given is functional. More on the design: concentration or dose not given beside the values; unit not given here.
Molecule `CC1=C(C(=O)Nc2ccc(C)cc2C)C(c2ccccc2)C(C(=O)Nc2ccc(C)cc2C)=C(C)N1` came in with an Inhibition of -0.865.

Take `CC1=C(C(=O)Nc2ccccc2Cl)C(c2ccccc2O)C(C(=O)Nc2ccccc2Cl)=C(C)N1`: the Inhibition is reported as -1.1949.

Consider `CC1=C(C(=O)Nc2ccc(Cl)cc2)C(c2ccc(O)cc2)C(C(=O)Nc2ccc(Cl)cc2)=C(C)N1`, for which the Inhibition was determined as 0.575.

Turning to `COc1ccc(C2C(C(=O)Nc3ccc(Cl)cc3)=C(C)NC(C)=C2C(=O)Nc2ccc(Cl)cc2)c(O)c1`, the Inhibition worked out at 0.63.

For the molecule `CC1=C(C(=O)Nc2ccc(C)cc2C)C(c2cccc([N+](=O)[O-])c2)C(C(=O)Nc2ccc(C)cc2C)=C(C)N1`, the Inhibition was determined as 0.0521.

`CSc1ccc(C2C(C(=O)Nc3ccccc3Cl)=C(C)NC(C)=C2C(=O)Nc2ccccc2Cl)cc1`: the Inhibition was 0.55.

`CC1=C(C(=O)Nc2ccc([N+](=O)[O-])cc2)C(c2ccccc2Cl)C(C(=O)Nc2ccc([N+](=O)[O-])cc2)=C(C)N1`: the Inhibition was 1.2787.

For the molecule `CC1=C(C(=O)Nc2cccc([N+](=O)[O-])c2)C(c2ccccc2Cl)C(C(=O)Nc2cccc([N+](=O)[O-])c2)=C(C)N1`, the Inhibition was found to be 1.5096.

Molecule `COc1cc(C2C(C(=O)Nc3ccc(Cl)cc3)=C(C)NC(C)=C2C(=O)Nc2ccc(Cl)cc2)cc(OC)c1OC` gave an Inhibition of 1.1949.

In turn, `CC1=C(C(=O)Nc2ccccc2Cl)C(c2ccccc2S)C(C(=O)Nc2ccccc2Cl)=C(C)N1` returned an Inhibition of -0.954.

The molecule `CC1=C(C(=O)Nc2cc(C)ccc2C)C(c2ccccc2O)C(C(=O)Nc2cc(C)ccc2C)=C(C)N1` registered an Inhibition of -0.432.

As for `CC1=C(C(=O)Nc2cccc([N+](=O)[O-])c2)C(c2ccccc2O)C(C(=O)Nc2cccc([N+](=O)[O-])c2)=C(C)N1`, the Inhibition is reported as 1.0606.

The molecule `CC1=C(C(=O)Nc2ccccc2Cl)C(c2ccccc2Cl)C(C(=O)Nc2ccccc2Cl)=C(C)N1` displayed an Inhibition of -0.6585.

In the case of `COc1ccc(C2C(C(=O)Nc3cc(C)ccc3C)=C(C)NC(C)=C2C(=O)Nc2cc(C)ccc2C)cc1`, the Inhibition is recorded as -0.158.

The molecule `CC1=C(C(=O)Nc2cccc([N+](=O)[O-])c2)C(c2ccccc2)C(C(=O)Nc2cccc([N+](=O)[O-])c2)=C(C)N1` gave an Inhibition of 1.1949.

In turn, `COc1ccccc1NC(=O)C1=C(C)NC(C)=C(C(=O)Nc2ccccc2OC)C1c1ccc(Cl)cc1Cl` came in with an Inhibition of 1.0047.

`COc1ccccc1NC(=O)C1=C(C)NC(C)=C(C(=O)Nc2ccccc2OC)C1c1ccc(N(C)C)cc1` came in with an Inhibition of 1.1233.

As for `CC1=C(C(=O)Nc2ccccc2Cl)C(c2ccc(Cl)cc2Cl)C(C(=O)Nc2ccccc2Cl)=C(C)N1`, the Inhibition is recorded as -0.9079.

On to `CSc1ccc(C2C(C(=O)Nc3ccc(C)cc3C)=C(C)NC(C)=C2C(=O)Nc2ccc(C)cc2C)cc1`, for which the Inhibition was 0.158.

Molecule `COc1ccccc1NC(=O)C1=C(C)NC(C)=C(C(=O)Nc2ccccc2OC)C1c1ccc(SC)cc1` came in with an Inhibition of 1.1233.

For the molecule `CSc1ccc(C2C(C(=O)Nc3cccc([N+](=O)[O-])c3)=C(C)NC(C)=C2C(=O)Nc2cccc([N+](=O)[O-])c2)cc1`, the Inhibition amounted to 1.6901.

`COc1ccccc1NC(=O)C1=C(C)NC(C)=C(C(=O)Nc2ccccc2OC)C1c1cccc([N+](=O)[O-])c1` registered an Inhibition of 0.2498.

The molecule `CSc1ccc(C2C(C(=O)Nc3ccccc3)=C(C)NC(C)=C2C(=O)Nc2ccccc2)cc1` gave an Inhibition of 0.3474.

Take `CC1=C(C(=O)Nc2ccccc2Cl)C(c2ccc(Cl)cc2)C(C(=O)Nc2ccccc2Cl)=C(C)N1`: the Inhibition was -0.6886.

`COc1ccc(C2C(C(=O)Nc3ccccc3Cl)=C(C)NC(C)=C2C(=O)Nc2ccccc2Cl)cc1` yielded an Inhibition of -0.3679.

Molecule `CC1=C(C(=O)Nc2ccc([N+](=O)[O-])cc2)C(c2ccc(Cl)cc2Cl)C(C(=O)Nc2ccc([N+](=O)[O-])cc2)=C(C)N1` returned an Inhibition of 1.3802.

Turning to `CC1=C(C(=O)Nc2cccc([N+](=O)[O-])c2)C(c2ccc(Cl)cc2Cl)C(C(=O)Nc2cccc([N+](=O)[O-])c2)=C(C)N1`, the Inhibition was found to be 1.6901.

Turning to `CC1=C(C(=O)Nc2ccc(Cl)cc2)C(c2cccc([N+](=O)[O-])c2)C(C(=O)Nc2ccc(Cl)cc2)=C(C)N1`, the Inhibition is recorded as -0.3888.

With `CSc1ccc(C2C(C(=O)Nc3ccc([N+](=O)[O-])cc3)=C(C)NC(C)=C2C(=O)Nc2ccc([N+](=O)[O-])cc2)cc1`, the Inhibition was found to be 1.5096.

Regarding `CC1=C(C(=O)Nc2ccc([N+](=O)[O-])cc2)C(c2ccc(Cl)cc2)C(C(=O)Nc2ccc([N+](=O)[O-])cc2)=C(C)N1`, the Inhibition is reported as 0.2126.
